Active and inactive are the calls of the source. The calls are words filed in the database; no cut-off is given here.
How the values were obtained:
[1] = molecular target: T1, Toll-like receptor 4 (Rattus norvegicus) (UniProt Q9QX05); assay: Inhibition of TLR4 in Sprague-Dawley rat cardiomyocytes assessed as reduction in hypoxia-induced creatine kinase levels at 20 uM preincubated for 1 hr followed by hypoxia for 3 hrs by NADP reduction based colorimetric analysis; format: cell-based
T1 sequence (whole entry): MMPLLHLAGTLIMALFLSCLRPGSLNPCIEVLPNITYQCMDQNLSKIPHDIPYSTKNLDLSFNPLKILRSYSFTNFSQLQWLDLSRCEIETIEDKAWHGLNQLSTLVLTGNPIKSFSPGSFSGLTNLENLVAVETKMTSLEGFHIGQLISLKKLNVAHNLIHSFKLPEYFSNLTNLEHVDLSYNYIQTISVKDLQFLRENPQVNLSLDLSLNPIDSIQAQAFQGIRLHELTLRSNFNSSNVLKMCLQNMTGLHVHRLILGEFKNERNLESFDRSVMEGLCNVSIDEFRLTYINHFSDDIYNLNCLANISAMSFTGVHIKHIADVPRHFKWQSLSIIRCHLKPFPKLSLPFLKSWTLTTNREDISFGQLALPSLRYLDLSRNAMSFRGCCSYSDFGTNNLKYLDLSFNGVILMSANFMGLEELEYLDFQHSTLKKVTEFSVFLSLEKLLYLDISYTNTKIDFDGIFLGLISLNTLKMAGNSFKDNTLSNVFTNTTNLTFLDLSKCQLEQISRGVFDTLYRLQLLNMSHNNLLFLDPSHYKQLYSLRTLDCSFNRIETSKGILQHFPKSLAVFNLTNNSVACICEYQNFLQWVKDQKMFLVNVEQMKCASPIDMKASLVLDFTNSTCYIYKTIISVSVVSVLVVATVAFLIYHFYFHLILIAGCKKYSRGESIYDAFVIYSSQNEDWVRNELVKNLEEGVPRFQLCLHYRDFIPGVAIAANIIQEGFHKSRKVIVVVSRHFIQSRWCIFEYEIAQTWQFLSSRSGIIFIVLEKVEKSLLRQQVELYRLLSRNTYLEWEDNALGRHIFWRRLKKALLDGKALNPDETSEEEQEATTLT

[2] = molecular target: T1, Toll-like receptor 4 (Rattus norvegicus); assay: Inhibition of TLR4 in Sprague-Dawley rat cardiomyocytes assessed as reduction in hypoxia-induced LDH release at 10 uM preincubated for 1 hr followed by hypoxia for 3 hrs by NADH detection based colorimetric analysis; format: cell-based
[3] = molecular target: T1, Toll-like receptor 4 (Rattus norvegicus); assay: Inhibition of TLR4 in Sprague-Dawley rat cardiomyocytes assessed as reduction in hypoxia-induced LDH release at 20 uM preincubated for 1 hr followed by hypoxia for 3 hrs by NADH detection based colorimetric analysis; format: cell-based
[4] = molecular target: T1, Toll-like receptor 4 (Rattus norvegicus); assay: Inhibition of TLR4 in Sprague-Dawley rat cardiomyocytes assessed as reduction in hypoxia-induced LDH release at 30 uM preincubated for 1 hr followed by hypoxia for 3 hrs by NADH detection based colorimetric analysis; format: cell-based
[5] = Reduction in hypoxia-induced TLR4 mRNA expression in Sprague-Dawley rat cardiomyocytes at 20 uM preincubated for 1 hr followed by hypoxia for 3 hrs by RT-qPCR analysis relative to untreated control; format: functional, Cardiac muscle cell
[6] = molecular target: T1, Toll-like receptor 4 (Rattus norvegicus); assay: Inhibition of TLR4 in Sprague-Dawley rat cardiomyocytes assessed as reduction in hypoxia-induced IRF3 protein expression at 20 uM preincubated for 1 hr followed by hypoxia for 3 hrs by Western blot analysis relative to untreated control; format: cell-based
Cardiac muscle cell = assay: Cytotoxicity against Sprague-Dawley rat cardiomyocytes assessed as reduction in cell viability at 50 uM; format: cell-based
[7] = molecular target: T1, Toll-like receptor 4 (Rattus norvegicus); assay: Binding affinity to TLR4 in Sprague-Dawley rat cardiomyocytes at 20 uM after 2 hrs by MS/MS-based pull down assay; format: cell-based
Mus musculus [8] = assay: Cardioprotective activity in C57BL mouse model of left anterior descending coronary artery ligation-induced myocardial ischemia assessed as reduction in LDH […] levels at 0.3 mg/kg, iv pretreated for 1 hr followed by left anterior descending coronary artery ligation; format: functional, organism-based
Mus musculus [9] = assay: Cardioprotective activity in C57BL mouse model of left anterior descending coronary artery ligation-induced myocardial ischemia assessed as reduction in serum LDH levels at 0.3 mg/kg, iv treated for 1 hr after by left anterior descending coronary artery ligation and measured after 24 hrs post LAD; format: functional, organism-based
Mus musculus [10] = assay: Cardioprotective activity in C57BL mouse model of left anterior descending coronary artery ligation-induced myocardial ischemia assessed as reduction in leukocyte infiltration at 0.3 mg/kg, iv treated 1 hr after left anterior descending coronary artery ligation and measured after 7 days post LAD by hematoxylin/eosin staining based light microscopy; format: functional, organism-based

For CCCCCCCCNc1nc(=O)n(Cc2ccccc2)cc1C, the inhibition [1] was “Active”, the inhibition [2] was “Active” and the inhibition [3] was “Active”. For the same molecule, the inhibition [4] was “Active”, the “fold change (FC)” value [5] was 3.1 and the fold change (FC) [6] was 2.7. For the same molecule, the Activity (Cardiac muscle cell) was “Toxic”, the Activity [7] was “Active” and the Activity (Mus musculus [8]) was “Active”. For the same molecule, the Activity (Mus musculus [9]) was “Active” and the Activity (Mus musculus [10]) was “Active”.

From ChEMBL document CHEMBL4382262, “Structurally Simple, Readily Available Peptidomimetic 1-Benzyl-5-methyl-4-( n-octylamino)pyrimidin-2(1 H)-one Exhibited Efficient Cardioprotection in a Myocardial Ischemia (MI) Mouse Model” (J Med Chem, 2018)
